According to US20230373934A1, “ANDROGEN RECEPTOR MODULATORS AND METHODS FOR THEIR USE” (ESSA Pharma, Inc., priority 2022, published 2023):
pIC50: −log10 of the molar value. Values belong to the compound of their own block, whether it stands above or below them.

Key:
androgen receptor (AR) = molecular target: T1, androgen receptor (AR) (Homo sapiens, UniProt P10275); assay: Androgen-induced PSA-luciferase assay, Luciferase Assay B (cells stably expressing ARR2PB or PSA-firefly luciferase reporter, 384-well); assay type: cell-based; settings: Luciferase Assay B (Compounds A186-A219 and A221-A245); stable luciferase reporter cells, 1 h pretreatment, R1881 24 h, serum-free; read-out: PSA-Luc IC50 Range
T1 sequence (P10275 1-920 T878A): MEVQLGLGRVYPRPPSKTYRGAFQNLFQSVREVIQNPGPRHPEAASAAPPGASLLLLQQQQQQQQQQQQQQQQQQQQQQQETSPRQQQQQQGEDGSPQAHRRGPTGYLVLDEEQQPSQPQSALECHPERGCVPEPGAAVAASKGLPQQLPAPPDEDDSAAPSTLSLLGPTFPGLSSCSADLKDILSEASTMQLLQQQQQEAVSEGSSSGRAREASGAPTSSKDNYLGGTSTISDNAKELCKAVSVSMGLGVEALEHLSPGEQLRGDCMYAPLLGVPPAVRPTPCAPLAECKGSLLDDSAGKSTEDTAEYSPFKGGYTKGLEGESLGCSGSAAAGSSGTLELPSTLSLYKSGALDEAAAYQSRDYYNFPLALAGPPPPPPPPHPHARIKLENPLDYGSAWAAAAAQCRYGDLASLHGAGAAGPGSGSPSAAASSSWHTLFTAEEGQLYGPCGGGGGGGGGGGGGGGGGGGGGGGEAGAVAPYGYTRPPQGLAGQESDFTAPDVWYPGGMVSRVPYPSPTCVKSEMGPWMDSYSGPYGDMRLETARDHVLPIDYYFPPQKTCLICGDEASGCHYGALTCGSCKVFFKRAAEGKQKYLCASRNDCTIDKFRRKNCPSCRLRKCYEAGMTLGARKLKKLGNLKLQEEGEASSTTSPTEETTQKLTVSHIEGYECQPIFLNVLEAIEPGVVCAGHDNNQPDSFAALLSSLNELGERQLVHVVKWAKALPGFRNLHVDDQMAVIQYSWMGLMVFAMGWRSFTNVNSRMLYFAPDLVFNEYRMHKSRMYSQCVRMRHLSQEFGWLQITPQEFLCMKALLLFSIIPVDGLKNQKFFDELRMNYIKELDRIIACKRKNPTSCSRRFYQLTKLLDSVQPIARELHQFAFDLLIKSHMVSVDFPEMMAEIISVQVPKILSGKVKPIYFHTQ

[1] = Microsomal stability assay, liver microsome half-life (human); assay type: in vitro ADME; settings: pH 7.4; human liver microsomes 0.5 mg/mL + NADPH, 1 μM compound, 37° C; read-out: Liver microsome + NADPH T½ (min) Human
Source text: (§1) Microsomal Stability Assay: Microsomal stability assay is a widely used in vitro model to characterize the metabolic conversion by phase I enzymes, such as cytochrome P450 (CYP) enzymes. Since metabolism is known to be highly variable in different species, microsomal stability assay is commonly run in multiple species. Metabolic stability of testing compound can be evaluated using human, rat, mouse, or other animal liver or intestine microsomes to predict intrinsic clearance.
(§2) The assay was carried out in 96-well microtiter plates at 37° C. Reaction mixtures (25 μL) contained a final concentration of 1 μM test compound, 0.5 mg/mL liver microsomes protein, and 1 mM NADPH and/or 1 mM UDPGA (with alamethicin) in 100 mM potassium phosphate, pH 7.4 buffer with 3 mM MgCl2. The incubation was done with N=1, but duplicate incubation at each time point can be prepared if necessary. At each of the time points (for example, 0, 15, 30, and 60 minutes), 150 μL of quench solution (100% acetonitrile with 0.1% formic acid) with internal standard was transferred to each well. Besides the zero minute controls, mixtures containing the same components except the NADPH can also be prepared as the negative control. Verapamil was included as a positive control to verify assay performance. Plates were sealed, vortexed, and centrifuged at 4° C. for 15 minutes at 4000 rpm. The supernatant is transferred to fresh plates for LC/MS/MS analysis.
(§3) Summarized conditions: [Compound]=1 μM, [LM]=0.5 mg/mL, [NADPH]=1 mM and/or [UDPGA]=1 mM, Buffer=100 mM Potassium Phosphate, pH 7.4 with 3 mM MgCl2, Time=0, 15, 30, and 60 min, and Temperature=37° C.
(§4) All samples were analyzed on LC/MS/MS using an AB Sciex API 4000 instrument, coupled to a Shimadzu LC-20AD LC Pump system. Analytical samples were separated using a Waters Atlantis T3 dC18 reverse phase HPLC column (20 mm×2.1 mm) at a flow rate of 0.5 mL/min. The mobile phase consisted of 0.1% formic acid in water (solvent A) and 0.1% formic acid in 100% acetonitrile (solvent B).
(§5) The extent of metabolism is calculated as the disappearance of the test compound, compared to the 0-min time incubation. Initial rates are calculated for the compound concentration and used to determine half-life (t1/2).

[2] = Microsomal stability assay, liver microsome half-life (rat); assay type: in vitro ADME; settings: pH 7.4; rat liver microsomes 0.5 mg/mL + NADPH, 1 μM compound, 37° C; read-out: Liver microsome + NADPH T½ (min) Rat
Source text: as §1, §2, §3, §4, §5

[3] = Microsomal stability assay, liver microsome half-life (mouse); assay type: in vitro ADME; settings: pH 7.4; mouse liver microsomes 0.5 mg/mL + NADPH, 1 μM compound, 37° C; read-out: Liver microsome + NADPH T½ (min) Mouse
Source text: as §1, §2, §3, §4, §5

[4] = Microsomal stability assay, liver microsome half-life (dog); assay type: in vitro ADME; settings: pH 7.4; dog liver microsomes 0.5 mg/mL + NADPH, 1 μM compound, 37° C; read-out: Liver microsome + NADPH T½ (min) Dog
Source text: as §1, §2, §3, §4, §5

[5] = Microsomal stability assay, liver microsome half-life (monkey); assay type: in vitro ADME; settings: pH 7.4; monkey liver microsomes 0.5 mg/mL + NADPH, 1 μM compound, 37° C; read-out: Liver microsome + NADPH T½ (min) Monkey
Source text: as §1, §2, §3, §4, §5

Compound: [2H]C([2H])([2H])N(c1ccc(-c2ccc3nc(NS(C)(=O)=O)cnc3c2)cc1)c1cc(Cl)c(OC2CC2)c(C#N)c1 [Compound A187]
pIC50 (androgen receptor (AR)): 5.70 to 6.30
half-life at 1 μM [1]: > 120 min
half-life at 1 μM [2]: > 120 min
half-life at 1 μM [3]: > 120 min
half-life at 1 μM [4]: > 120 min
half-life at 1 μM [5]: > 120 min

Compound: CS(=O)(=O)Nc1cnc2cc(-c3ccc(Oc4cc(C#N)c(OC5CC5)c(C(F)(F)F)c4)cc3)ccc2n1 [Compound A190]
pIC50 (androgen receptor (AR)): 5.70 to 6.30
half-life at 1 μM [1]: > 120 min
half-life at 1 μM [2]: > 120 min
half-life at 1 μM [3]: > 120 min
half-life at 1 μM [4]: > 120 min
half-life at 1 μM [5]: > 120 min

Compound: CS(=O)(=O)Nc1nc2ccc(-c3ccc(Oc4cc(Cl)c(OC5CC5)c(C#N)c4)cc3)cc2cc1F [Compound A191]
pIC50 (androgen receptor (AR)): 5.70 to 6.30
half-life at 1 μM [1]: > 120 min
half-life at 1 μM [2]: > 120 min
half-life at 1 μM [3]: > 120 min
half-life at 1 μM [4]: > 120 min
half-life at 1 μM [5]: > 120 min

Compound: CS(=O)(=O)Nc1cnc2cc(-c3ccc(Oc4cc(C#N)c(OC5CC5)c(C#N)c4)cc3)ccc2n1 [Compound A198]
pIC50 (androgen receptor (AR)): > 6.30
half-life at 1 μM [1]: > 120 min
half-life at 1 μM [2]: > 120 min
half-life at 1 μM [3]: > 120 min
half-life at 1 μM [4]: > 120 min
half-life at 1 μM [5]: > 120 min

Compound: CS(=O)(=O)Nc1cnc2cc(-c3ccc(N(CC(F)(F)F)c4cc(F)c(OC5CC5)c(C#N)c4)cc3)ccc2n1 [Compound A199]
pIC50 (androgen receptor (AR)): > 6.30
half-life at 1 μM [1]: > 120 min
half-life at 1 μM [2]: > 120 min
half-life at 1 μM [3]: > 120 min
half-life at 1 μM [4]: > 120 min
half-life at 1 μM [5]: > 120 min

Compound: CS(=O)(=O)Nc1nccc(COc2ccc(N(CC(F)(F)F)c3cc(Cl)c(OC4CC4)c(C#N)c3)cc2)n1 [Compound A202]
pIC50 (androgen receptor (AR)): > 6.30
half-life at 1 μM [1]: > 120 min
half-life at 1 μM [2]: > 120 min
half-life at 1 μM [3]: > 120 min
half-life at 1 μM [4]: > 120 min
half-life at 1 μM [5]: > 120 min

Other lines, results leading:

pIC50 (androgen receptor (AR)): > 6.30
half-life at 1 μM [1]: > 120 min
half-life at 1 μM [2]: > 120 min
half-life at 1 μM [3]: > 120 min
half-life at 1 μM [4]: > 120 min
half-life at 1 μM [5]: > 120 min
Compound: CS(=O)(=O)Nc1cnc2cc(-c3ccc(N(CC(F)(F)F)c4cnc(OC5CC5)c(C#N)c4)cc3)ccc2n1 [Compound A203, N-(6-(4-((5-cyano-6-cyclopropoxypyridin-3-yl)(2,2,2-trifluoroethyl)amino)phenyl)quinoxalin-2-yl)methanesulfonamide]

pIC50 (androgen receptor (AR)): 5.70 to 6.30
half-life at 1 μM [1]: > 120 min
half-life at 1 μM [2]: > 120 min
half-life at 1 μM [3]: > 120 min
half-life at 1 μM [4]: > 120 min
half-life at 1 μM [5]: > 120 min
Compound: N#Cc1cc(Oc2ccc(-c3ccc4nc(N5CC(O)C5)cnc4c3)cc2)cc(Cl)c1OC1CC1 [Compound A205]

pIC50 (androgen receptor (AR)): > 6.30
half-life at 1 μM [1]: > 120 min
half-life at 1 μM [2]: > 120 min
half-life at 1 μM [3]: > 120 min
half-life at 1 μM [4]: > 120 min
half-life at 1 μM [5]: > 120 min
Compound: CN(c1ccc(-c2ccc3nc(NS(C)(=O)=O)cnc3c2)cc1)c1cc(F)c(OC2CC2)c(C#N)c1 [Compound A208]
